Assay results as given in BindingDB's records for doi:10.1124/mol.63.6.1329 (University of Milan, 2003).

Target: Neuronal acetylcholine receptor subunit alpha-6 (Gallus gallus, UniProt P49581)
Sequence (P49581 whole entry): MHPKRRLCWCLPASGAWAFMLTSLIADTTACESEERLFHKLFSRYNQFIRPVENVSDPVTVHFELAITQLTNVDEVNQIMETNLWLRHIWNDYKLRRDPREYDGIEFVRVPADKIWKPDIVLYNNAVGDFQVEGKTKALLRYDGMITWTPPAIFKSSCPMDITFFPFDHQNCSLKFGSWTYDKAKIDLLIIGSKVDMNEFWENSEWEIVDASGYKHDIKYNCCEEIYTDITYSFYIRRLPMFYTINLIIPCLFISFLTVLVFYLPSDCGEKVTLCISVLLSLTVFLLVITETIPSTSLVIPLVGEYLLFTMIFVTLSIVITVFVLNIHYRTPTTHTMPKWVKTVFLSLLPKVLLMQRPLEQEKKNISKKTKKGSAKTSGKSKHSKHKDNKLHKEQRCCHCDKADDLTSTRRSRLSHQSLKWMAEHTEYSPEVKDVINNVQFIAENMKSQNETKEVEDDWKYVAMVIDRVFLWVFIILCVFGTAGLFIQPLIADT

SMILES | Ki [µM]
CC[N+](CC)(CC)CCOc1ccc(C=Cc2ccccc2)cc1 [CAS_17360] | 4.52
CN1CCC[C@H]1c1cccnc1 [(R,S)-nicotine] | 0.02
COc1cc2c3cc1Oc1cc(ccc1O)CC1c4c(cc(OC)c(O)c4Oc4ccc(cc4)CC3N(C)CC2)CC[N+]1(C)C (configuration not stated) [CAS_64645] | 7.7
COC1CC=C2CCN3CCC4=C(CC(=O)OC4)C23C1 (configuration not stated) [NSC_31762] | 2.8
CC(C)C[C@@H]1NC(=O)[C@H](CC(N)=O)NC(=O)[C@H](CO)NC(=O)[C@H](Cc2cnc[nH]2)NC(=O)[C@H](CCC(=O)O)NC(=O)[C@H](CC(C)C)NC(=O)[C@H](Cc2cnc[nH]2)NC(=O)[C@@H]2CSSC[C@H](NC(=O)CN)C(=O)N[C@@H](CSSC[C@@H](C(N)=O)NC1=O)C(=O)N[C@@H](CO)C(=O)N[C@@H](CC(N)=O)C(=O)N1CCC[C@H]1C(=O)N[C@@H](C(C)C)C(=O)N2 [Gly-L-Cys(1)-L-Cys(2)-L-Ser-L-Asn-L-Pro-L-Val-L-Cys(1)-L-His-L-Leu-L-Glu-L-His-L-Ser-L-Asn-L-Leu-L-Cys(2)-NH2] | 0.066
C[N+](C)(C)CCCCCCCCCC[N+](C)(C)C [Decamethonium Iodide] | > 10
C[N+](C)(C)CCCCCC[N+](C)(C)C [Hexamethoniumdibromide] | > 10
